Measurements: patent publication US8962666B2, “Method for improving cartilage repair and/or preventing cartilage degeneration in a joint” (Maastricht University, priority 2009, dated 2015)

Tests used:
[1] = system: cartilage only defect on medial femoral condyles; assay: Goat cartilage defect repair (MACI / microfracture) with Bio-Gel containing Parecoxib in Hoffa's fatpad; format: in vivo, Dutch milk goats; conditions: controlled release from Hoffa's fatpad; summary statement
Description: Surgical procedure: Skeletally mature Dutch milk goats were used for this study. During the first operation, both knee joints of the goats were opened using a medial parapatellar incision. Using a 8 mm in diameter dermal punch a cartilage only defect was created on both medial femoral condyles. The cartilage of both sides was minced and after an overnight collagenase treatment, cells were isolated and expanded in monolayer. […] Consequently these cells were seeded and allowed to attach in a collagen carrier for 24 hrs as described earlier as Matrix-supported Autologous Chondrocyte Implantation (MACI). Hereafter a second operation was performed. The knee joints were opened and one the cartilage defect of one knee joint was repaired using the MACI method. The defect in the other knee joint was repaired using microfracturing as described by […] et al. In 10 goats Hoffa's fatpad was injected (as described earlier) with a Bio-Gel containing 1.5 mg of Parecoxib, in 10 goats Hoffa's fatpad was injected (as described earlier) with a Bio-Gel only, and in 10 goats no injection was performed. Goats were allowed full-weight bearing after both surgical procedures. Histological evaluation: 3 months after the second operation, goats were sacrificed. […] Mankin scores for OA grading and O'Driscoll scores for cartilage repair were scored by 2 blinded individuals.

[2] = Parecoxib concentration in synovial joint fluid after Bio-Gel injection in Hoffa's fat pad (HPLC); format: in vivo, Wistar rats; conditions: 0.1 ml Bio-Gel containing 500 μg Parecoxib in Hoffa's fat pad
Description: After induction of general anaesthesia, both knees of Wistar rats were shaved and prepared for aseptic surgery. The centre of the patella tendon was identified. A 28 G needle with a 1 ml syringe was used to penetrate the centre patella tendon. Directly after the patella tendon is penetrated and 0.1 ml of the Bio-Gel containing 500 μg of Parecoxib was injected in Hoffa's fad pad. Directly after injection, 1 day, 5 days, 10 days and 30 days after injection the rats were sacrificed.
The concentration of parecoxib in the SJF was examined using a high-performance liquid chromatography

[3] = system: anterior cruciate ligament-transected (ACLT) knees; conditions: cited from earlier work
[4] = intra-articular parecoxib injection

intra-articular level of parecoxib ([2]; after 30 days follow): remained stable
time of maximum parecoxib level in the SJF ([2]; time after injection): 1 days
SMILES: CCC(=O)NS(=O)(=O)c1ccc(-c2c(-c3ccccc3)noc2C)cc1 [Parecoxib]
cartilage repair using MACI and microfracturing [1]: significantly improved
cartilage degeneration ([3]; ACLT knees, intra-articular injection): significant inhibition
effect on cartilage and synovium of normal knees ([3]; intra-articular parecoxib alone, naive rats): did not have any effect
glutamate and aspartate levels [3, 4]: reduced
synovial inflammation [3, 4]: suppressed
